Values of other authors in US20220000797A1, “CLEAR PROPOFOL INJECTION AND PREPARATION METHOD THEREFOR” ((BIKA BIOTECHNOLOGY (GUANGZHOU) CO., LTD), priority 2018, published 2022).
Read-outs that look alike come from different tables or passages of the source.

**Q.** Which injection pain (final concentration of sodium bicarbonate approaches 1.4%) does the source give for `O=C([O-])O.[Na+]` [sodium bicarbonate] here?
**A.** Its injection pain is “can reduce injection pain”.

**Q.** And the injection pain (low concentration of sodium bicarbonate (0.25%))?
**A.** The injection pain was “cannot reduce injection pain”.
